Experimental data from PubChem BioAssay AID1919007 (Molecular Pharmacology Branch, DTP, NCI, 2023).

System: A498 complex spheroids with HUVEC/MSC, growth
Assay: Anticancer human tumor A498 cell line growth inhibition [AhR];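 also: seven day exposure starting three days after spheroid seeding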;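 as to viability, T/C: luminescence signal used as a surrogate for viable cells; luminescence viability scaled so 100% equals DMSO vehicle wells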
Details: for IC50: curve of first compound; for viability, T/C: stronger effect = lower value
Text: Multicellular complex tumor spheroid response to aryl hydrocarbon receptor antagonists in combination with a variety of drugs and investigational agents in selected tumor cell lines
The current study was undertaken to assess response to aryl hydrocarbon receptor antagonists in combination with standard-of-care drugs and investigational agents in solid tumor complex spheroid models. Complex spheroids include a stromal component modeled by human endothelial cells (HUVEC) and fibroblasts modeled by human mesenchymal stem cells (MSCs). The concentration ranges selected for each drug and investigational agent were based upon clinically achievable concentrations if the clinical Cmax of the agent was known.
Compounds. The drugs and investigational agents: BAY 2416964 (NSC825713), GNF351 (NSC835774), CH-223191 (NSC835775), CPI-455 (NSC825282), aza-TdCyd (NSC777586), decitabine (NSC127716), belinostat (NSC758774), entinostat (NSC756642), pevonedistat (NSC761192), tazemetostat (NSC777109), talazoparib (NSC765396), olaparib (NSC753686), selinexor (NSC780203), nedisertib (M3814, NSC802822), bortezomib (NSC756655), venetoclax (NSC766270), doxorubicin (NSC123127), elimusertib (BAY189344, NSC800525), ceralasertib (AZD6738, NSC777638), TAK-243 (NSC785004), alisertib (NSC759677), etoposide (NSC141540), topotecan (NSC609699), eribulin (NSC707389), gemcitabine (NSC613327), carboplatin (NSC241240), cisplatin (NSC119875), and SN-38 (NSC673596) were obtained from the National Cancer Institute (NCI) Developmental Therapeutics Program Chemical Repository (32). The FDA-approved anticancer drug set is available from the Developmental Therapeutics Program at https://dtp.cancer.gov/organization/dscb/obtaining/available plates.htm. […] The stock solutions were prepared in dimethyl sulfoxide (DMSO, Sigma-Aldrich, St. Louis, MO, cat. D2650), except for the platinum compounds which were prepared in saline (Quality Biological, Gaithersburg, MD, cat. 114-055-101), at 800-fold the tested concentration and stored at -70 degrees C prior to their use. All drugs and investigational agents were tested over a range starting from a high concentration at or near the clinical Cmax and decreasing in half-log increments. If the clinical Cmax for an agent had not been determined, the highest concentration tested was 10 microM (Table 1).
Cell Culture. All cells were maintained in an incubator at 37 degrees C and 5% CO2 with 95% humidity. The PDC lines were cultured according to standard operating procedures established by the NCI PDMR (https://pdmr.cancer.gov). Briefly, all PDCs were thawed and cultured in Matrigel-coated flasks prepared with a working solution of 1X Ham's F-12 nutrient mix, without supplementation (Invitrogen, Waltham, MA, cat. 11765054), 100 U/mL penicillin-streptomycin (Invitrogen, cat. 15140122), and 2.5% Matrigel (Corning Inc., Corning, NY, cat. 354248) for the first three passages. All PDCs were cultured in complete DMEM/F-12 media containing advanced DMEM/F-12 (Invitrogen, cat. 12634028), 4.9% defined fetal bovine serum, heat inactivated (HyClone Laboratories Inc., Logan, UT, cat. SH30070.03HI), 389 ng/mL hydrocortisone (Sigma-Aldrich, cat. H4001), 9.7 ng/mL human EGF recombinant protein (Invitrogen, cat. PHG0313), 23.4 microg/mL adenine (Sigma-Aldrich, cat. A2786), 97.3 U/mL penicillin-streptomycin (Invitrogen, cat. 15140122), 1.9 mM L-glutamine (Invitrogen, cat. 25030081), and 9.7 microM Y-27632 dihydrochloride (Tocris Bioscience, Bristol, United Kingdom, cat. 1254). The PDCs were cultured in complete DMEM/F12 media without 10 microM Y-27632 dihydrochloride for at least two passages prior to the screen. The established cell lines NCI-H1341 and […] were cultured in DMEM/F-12, HEPES (Invitrogen, cat. 11330032), 5% defined fetal bovine serum (HyClone Laboratories Inc., cat. SH30070.03), ITS premix universal culture supplement [insulin (5 microg/mL), transferrin (5 microg/mL), and selenious acid (5 ng/mL)] […]

[1] = second compound 0.1 µM, first compound 0.0316 µM
[2] = second compound 0.1 µM, first compound 0.1 µM
[3] = second compound 0.1 µM, first compound 0.316 µM
[4] = second compound 0.1 µM, first compound 1 µM
[5] = second compound 0.1 µM, first compound 3.16 µM
[6] = second compound 0.1 µM, first compound 10 µM
[7] = second compound 0.316 µM, first compound 0.0316 µM
[8] = second compound 0.316 µM, first compound 0.1 µM
[9] = second compound 0.316 µM, first compound 0.316 µM
[10] = second compound 0.316 µM, first compound 1 µM
[11] = second compound 0.316 µM, first compound 3.16 µM
[12] = second compound 0.316 µM, first compound 10 µM
[13] = second compound 1 µM, first compound 0.0316 µM
[14] = second compound 1 µM, first compound 0.1 µM
[15] = second compound 1 µM, first compound 0.316 µM
[16] = second compound 1 µM, first compound 1 µM
[17] = second compound 1 µM, first compound 3.16 µM
[18] = second compound 1 µM, first compound 10 µM
[19] = second compound 3.16 µM, first compound 0.0316 µM
[20] = second compound 3.16 µM, first compound 0.1 µM
[21] = second compound 3.16 µM, first compound 0.316 µM
[22] = second compound 3.16 µM, first compound 1 µM
[23] = second compound 3.16 µM, first compound 3.16 µM
[24] = second compound 3.16 µM, first compound 10 µM
[25] = second compound 10 µM, first compound 0.0316 µM
[26] = second compound 10 µM, first compound 0.1 µM
[27] = second compound 10 µM, first compound 0.316 µM
[28] = second compound 10 µM, first compound 1 µM
[29] = second compound 10 µM, first compound 3.16 µM
[30] = second compound 10 µM, first compound 10 µM

`COc1cc(Nc2ncc3c(n2)-c2ccc(Cl)cc2C(c2c(F)cccc2OC)=NC3)ccc1C(=O)O` + CC(CO)NC(=O)c1cc(-c2ccc(Cl)cc2)nn(-c2cnn(C)c2)c1=O gave an IC50 (second compound 0.1 µM) of 1490 nM, an IC50 (second compound 0.316 µM) of 1360 nM and an IC50 (second compound 1 µM) of 892 nM. For the same molecule, the IC50 (second compound 3.16 µM) was 1060 nM, the IC50 (second compound 10 µM) was 455 nM and the viability, T/C [1] was 62.6%. The viability, T/C [2] was 69.4%, the viability, T/C [3] was 63.5% and the viability, T/C [4] was 50.2%. The viability, T/C [5] was 45.3%, the viability, T/C [6] was 33.2% and the viability, T/C [7] was 70%. For the same molecule, the viability, T/C [8] was 67.9%, the viability, T/C [9] was 64.5% and the viability, T/C [10] was 50.7%. It also gave a viability, T/C [11] of 43.3%, a viability, T/C [12] of 32.3% and a viability, T/C [13] of 60.1%. It also gave a viability, T/C [14] of 67.5%, a viability, T/C [15] of 61.1% and a viability, T/C [16] of 47%. For the same molecule, the viability, T/C [17] was 41.5%, the viability, T/C [18] was 33.5% and the viability, T/C [19] was 55.1%. It also gave a viability, T/C [20] of 59.9%, a viability, T/C [21] of 59.1% and a viability, T/C [22] of 47.2%. The viability, T/C [23] was 42.2%, the viability, T/C [24] was 30.8% and the viability, T/C [25] was 49.6%. It also gave a viability, T/C [26] of 55%, a viability, T/C [27] of 53.3% and a viability, T/C [28] of 44.8%. It also gave a viability, T/C [29] of 37.4% and a viability, T/C [30] of 34.9%.

`Cn1ncnc1C1c2n[nH]c(=O)c3cc(F)cc(c23)NC1c1ccc(F)cc1` (stereo not given) + CC(CO)NC(=O)c1cc(-c2ccc(Cl)cc2)nn(-c2cnn(C)c2)c1=O gave an IC50 (second compound 0.1 µM) of over 100 nM, an IC50 (second compound 0.316 µM) of over 100 nM and an IC50 (second compound 1 µM) of over 100 nM. For the same molecule, the IC50 (second compound 3.16 µM) was over 100 nM, the IC50 (second compound 10 µM) was over 100 nM and the viability, T/C (second compound 0.1 µM, first compound 0.000316 µM) was 100%. For the same molecule, the viability, T/C (second compound 0.1 µM, first compound 0.001 µM) was 102%, the viability, T/C (second compound 0.1 µM, first compound 0.00316 µM) was 106% and the viability, T/C (second compound 0.1 µM, first compound 0.01 µM) was 95.1%. For the same molecule, the viability, T/C [1] was 91.4%, the viability, T/C [2] was 92.4% and the viability, T/C (second compound 0.316 µM, first compound 0.000316 µM) was 99.5%. The viability, T/C (second compound 0.316 µM, first compound 0.001 µM) was 103%, the viability, T/C (second compound 0.316 µM, first compound 0.00316 µM) was 101% and the viability, T/C (second compound 0.316 µM, first compound 0.01 µM) was 88.5%. For the same molecule, the viability, T/C [7] was 87.6%, the viability, T/C [8] was 87.8% and the viability, T/C (second compound 1 µM, first compound 0.000316 µM) was 100%. The viability, T/C (second compound 1 µM, first compound 0.001 µM) was 95.7%, the viability, T/C (second compound 1 µM, first compound 0.00316 µM) was 103% and the viability, T/C (second compound 1 µM, first compound 0.01 µM) was 94.1%. It also gave a viability, T/C [13] of 93.5%, a viability, T/C [14] of 91.2% and a viability, T/C (second compound 3.16 µM, first compound 0.000316 µM) of 91%. For the same molecule, the viability, T/C (second compound 3.16 µM, first compound 0.001 µM) was 94.1%, the viability, T/C (second compound 3.16 µM, first compound 0.00316 µM) was 92.1% and the viability, T/C (second compound 3.16 µM, first compound 0.01 µM) was 80.2%. The viability, T/C [19] was 77.8%, the viability, T/C [20] was 79.1% and the viability, T/C (second compound 10 µM, first compound 0.000316 µM) was 74.3%. The viability, T/C (second compound 10 µM, first compound 0.001 µM) was 71.7%, the viability, T/C (second compound 10 µM, first compound 0.00316 µM) was 75.9% and the viability, T/C (second compound 10 µM, first compound 0.01 µM) was 69%. The viability, T/C [25] was 68.5% and the viability, T/C [26] was 67.1%.

For `NS(=O)(=O)OCC1CC(n2ccc3c(NC4CCc5ccccc54)ncnc32)CC1O` (stereo not given) + CC(CO)NC(=O)c1cc(-c2ccc(Cl)cc2)nn(-c2cnn(C)c2)c1=O, the IC50 (second compound 0.1 µM) was 268 nM, the IC50 (second compound 0.316 µM) was 263 nM and the IC50 (second compound 1 µM) was 310 nM. The IC50 (second compound 3.16 µM) was 245 nM, the IC50 (second compound 10 µM) was 196 nM and the viability, T/C [1] was 94.8%. The viability, T/C [2] was 86%, the viability, T/C [3] was 42.4% and the viability, T/C [4] was 30%. It also gave a viability, T/C [5] of 22.4%, a viability, T/C [6] of 17.7% and a viability, T/C [7] of 90.9%. The viability, T/C [8] was 81.8%, the viability, T/C [9] was 42.9% and the viability, T/C [10] was 27.2%. The viability, T/C [11] was 23.3%, the viability, T/C [12] was 17.6% and the viability, T/C [13] was 92%. The viability, T/C [14] was 82.4%, the viability, T/C [15] was 47.5% and the viability, T/C [16] was 30.8%. The viability, T/C [17] was 23.4%, the viability, T/C [18] was 19.8% and the viability, T/C [19] was 92.5%. The viability, T/C [20] was 73.6%, the viability, T/C [21] was 41.5% and the viability, T/C [22] was 29.3%. For the same molecule, the viability, T/C [23] was 20.6%, the viability, T/C [24] was 18.3% and the viability, T/C [25] was 79%. For the same molecule, the viability, T/C [26] was 64.1%, the viability, T/C [27] was 39.5% and the viability, T/C [28] was 26%. For the same molecule, the viability, T/C [29] was 20.9% and the viability, T/C [30] was 17.6%.

With `O=C(C=Cc1cccc(S(=O)(=O)Nc2ccccc2)c1)NO` + CC(CO)NC(=O)c1cc(-c2ccc(Cl)cc2)nn(-c2cnn(C)c2)c1=O the IC50 (second compound 0.1 µM) was 812 nM, the IC50 (second compound 0.316 µM) was 719 nM and the IC50 (second compound 1 µM) was 704 nM. The IC50 (second compound 3.16 µM) was 612 nM, the IC50 (second compound 10 µM) was 298 nM and the viability, T/C [1] was 82.8%. For the same molecule, the viability, T/C [2] was 79.2%, the viability, T/C [3] was 63.6% and the viability, T/C [4] was 42.5%. It also gave a viability, T/C [5] of 32.6%, a viability, T/C [6] of 9.53% and a viability, T/C [7] of 80.2%. The viability, T/C [8] was 74.3%, the viability, T/C [9] was 64.5% and the viability, T/C [10] was 39.4%. For the same molecule, the viability, T/C [11] was 31.9%, the viability, T/C [12] was 9.41% and the viability, T/C [13] was 80.5%. It also gave a viability, T/C [14] of 80.8%, a viability, T/C [15] of 61% and a viability, T/C [16] of 42.2%. It also gave a viability, T/C [17] of 28.1%, a viability, T/C [18] of 9.7% and a viability, T/C [19] of 73.1%. It also gave a viability, T/C [20] of 72.8%, a viability, T/C [21] of 58.6% and a viability, T/C [22] of 39.6%. It also gave a viability, T/C [23] of 28.8%, a viability, T/C [24] of 6.66% and a viability, T/C [25] of 67%. The viability, T/C [26] was 56.6%, the viability, T/C [27] was 53.8% and the viability, T/C [28] was 33.7%. It also gave a viability, T/C [29] of 25.6% and a viability, T/C [30] of 6.56%.
